Test results as given in US11154519B2, “Inhibitors and their uses” (MEDICAL RESEARCH COUNCIL, priority 2015, dated 2021).

Key:
HeLa cells [1] = experiment: Cell death dose response (CellTox green, IncuCyte); format: cell-based; settings: for EC50: Homo sapiens, area under % cell death vs time curve against log conc, read-out: Effect on cell death ⇒ EC50; for Effect on cell death: IncuCyte, 0-20 μM
Method: Toxicity of the compounds is assessed using Cell viability Counting Kit-8 (Dojindo) or in a Incucyte (Essenbioscience) using both phase contrast and IncuCyte™ Cytotox Green Reagent.
(§1) HeLa cells (40,000 cells/ml) were plated in a 96-well plate and treated with different concentrations (0-20 μM) of a compound as indicated in the presence of 250 ng/ml Tunicamycin for 72 hours. To monitor cell death 1/2000 dilution of the CellTox green dye (Promega) was added to the media. The growth of the cells was monitored over time and pictures taken every 2 hours with the IncuCyte ZOOM system and analysed by the IncuCyte ZOOM software (Essen BioScience). […] Cytoprotection against ER stress can be measured by a suitable assay. In this instance, cytoprotection was measured in HeLa cells in which ER stress was elicited by the addition of media containing tunicamycin, a drug that blocks N-glycosylation, thereby preventing protein folding and inducing the unfolded protein response. Cell viability was then detected in the presence and absence of a compound listed in Table 1 after a set period of time, by monitoring cell growth over time. Cytoprotection from ER stress was measured in terms of the percentage increase in viable cells (relative to control) after ER stress.
EC50 were extrapolated from dose response experiments on cell death. Data from IncuCyte was plotted and analysed in Prism. The “% of cell death” for each data point. For each concentration there is a % of cell death vs time, the area under the curve was taken and plotted against log conc=>EC50 (analysis in Prism).

PPP1R15B-PP1 = target: T1, PPP1R15B-PP1 (Homo sapiens, UniProt Q5SWA1); experiment: SPR steady-state binding to R15B-PP1 holophosphatase; settings: SPR steady-state, MBP-R15B340-698-His captured on bio-PP1c, 10° C.; read-out: R15B (KD)
T1 construct: cDNAs encoding amino acids 325-636 of PPP1R15A and 340-698 of PPP1R15B were His-tagged and cloned into pMAL-c5x; made in house; host or cells: R15B: E. coli BL21-Gold (pMAL-c5x); PP1γ: Sf9 insect cells (baculovirus, pDW464)
Method: PPP1R15A^325-636 and PPP1R15B^340-698 were expressed and purified as follows: the cDNAs encoding amino acids 325-636 of PPP1R15A and 340-698 of PPP1R15B were His-tagged and cloned into pMAL-c5x. Recombinant PPP1R15A/B were expressed in BL21-Gold cells and purified by affinity chromatography on a HisTrap HP column (GE Healthcare), followed by a MBPTrap HP column (GE Healthcare). The proteins were analyzed on BOLT SDS-PAGE 4-12% Bis-Tris gels (Life Technologies) stained with SimplyBlue SafeStain (Life Technologies). cDNA encoding for human PP1γ was cloned into the baculovirus transfer vector pDW464 to add a biotin acceptor peptide (BAP). The vector also encodes for the E. coli biotin holoenzyme synthetase (BirA), so that BAP-tagged proteins can be biotinylated in vivo in Spodoptere frugiperda (Sf9) insect cells (Duffy et al., Anal. Biochem., 262, 122-128, 1998). The Bac-to-Bac baculovirus expression system (Life Technologies) was used to generate the recombinant bacmid DNA and Sf9 insect cells were used to amplify the viral stocks Cultures were harvested by centrifuging at 1,200 g for 15 minutes, cell pellets were resuspended in lysis buffer (50 mM Tris pH 7.4, 150 mM NaCl, 0.2% Triton, 5% Glycerol, 1 PiC tablet (Roche) per 50 ml and 0.2 mM PMSF) and followed by gentle sonication. The protein was first purified on a 5 ml HiTrap Q HP column (GE Healthcare) followed by a HiLoad 16/600 Superdex 200 column (GE Healthcare). The positive fractions confirmed by SDS-PAGE and western blot were pooled, concentrate to ˜1 μM and stored at −80° C.
A Biacore T200 (GE Healthcare) system was used for all experiments and biotinylated PP1 was captured using a Sensor Chip SA (GE Healthcare, catalog no BR-1005-31). The streptavidin coated surface was activated by 1 min injection with a solution of 50 mM NaOH and 1 M NaCl. Biotin-PP1 was diluted in the running buffer (50 mM Tris pH 7.5, 100 mM NaCl, 0.1 mM EGTA, 1 mM MnCl2, 0.05% Tween 20) and injected at approximately 300 nM concentration directly to streptavidin coated surface for 100 sec or to reach immobilization level of biotin-PP1 corresponding to ˜7000 RU. A blank immobilization was performed for one of the SA sensor chip surface to use as a reference.
With minor deviations, the same procedure and conditions were used in all binding experiments. Small molecules were stored as 50 mM stock solutions in 100% DMSO. Prior to determining binding constants, serial dilutions of either 12 or 8 concentrations of the compounds were prepared in the running buffer in a 96-well plate. Prior to each compound dilution series the regulatory subunit, R15A or R15B, was diluted to […] in the running buffer and captured on the biotin-PP1 surface, to form the holophosphatase complex on the sensor chip surface. Then, without regenerating the surface, the compound dilution series was injected onto the surface of the chip Sensorgrams were analyzed using the Biacore T200 evaluation software and the binding constants determined based on a steady-state model. Kinetic experiments are carried out using different concentrations of the compound and their respective equilibrium binding levels determined.
Surface Plasmon Resonance (SPR) was used to measure the binding affinity of compounds to the PPP1R15A/B-PP1 phosphatase complex. Biotin acceptor peptide (BAP) was fused to the N-terminus of PP1γ, which enables the biotinylation of the BAP-tagged protein in Sf9 insect cells. After purification the BAP-PP1γ protein was captured on a streptavidin sensor chip (SA-chip, GE healthcare) to a response level of ˜5.000 RU. Using controlled biotinylation enables orientated and uniform immobilization on the sensor chip surface. The PP1γ was then used to capture PPP1R15A/B and form a holophosphatase complex on the surface of the streptavidin chip. This complex can then be used to test binding of compounds. 10 μM PPP1R15A/B protein concentration was used to form the holophosphatase complex during a 80 s injection. […]

PP1 = target: T2, PP1 (Homo sapiens, UniProt P36873); experiment: SPR binding to PP1 alone; settings: SPR steady-state, bio-PP1c surface
T2 construct: made in house; host or cells: Sf9 insect cells (baculovirus, pDW464)

HeLa cells [2] = experiment: Cytoprotection against ER stress (tunicamycin), IncuCyte; format: cell-based; settings: Homo sapiens, 250 ng/ml Tunicamycin, 72 hours, compound 0-20 μM, read-out: Cytoprotection from Tm (compared to GNB)
Method: as §1

T1 sequence (Q5SWA1 340-698): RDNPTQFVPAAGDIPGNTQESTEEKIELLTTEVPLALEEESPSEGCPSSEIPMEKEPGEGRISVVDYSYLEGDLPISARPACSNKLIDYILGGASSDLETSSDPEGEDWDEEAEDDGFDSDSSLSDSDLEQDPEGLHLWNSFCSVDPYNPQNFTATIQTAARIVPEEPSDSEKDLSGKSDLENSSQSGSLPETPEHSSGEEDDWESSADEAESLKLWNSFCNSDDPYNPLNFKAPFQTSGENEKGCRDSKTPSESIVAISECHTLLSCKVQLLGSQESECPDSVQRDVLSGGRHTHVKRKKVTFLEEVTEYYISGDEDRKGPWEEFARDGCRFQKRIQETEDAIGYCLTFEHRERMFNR
T1 sequence (P36873 whole entry partner, the tested form may be a part): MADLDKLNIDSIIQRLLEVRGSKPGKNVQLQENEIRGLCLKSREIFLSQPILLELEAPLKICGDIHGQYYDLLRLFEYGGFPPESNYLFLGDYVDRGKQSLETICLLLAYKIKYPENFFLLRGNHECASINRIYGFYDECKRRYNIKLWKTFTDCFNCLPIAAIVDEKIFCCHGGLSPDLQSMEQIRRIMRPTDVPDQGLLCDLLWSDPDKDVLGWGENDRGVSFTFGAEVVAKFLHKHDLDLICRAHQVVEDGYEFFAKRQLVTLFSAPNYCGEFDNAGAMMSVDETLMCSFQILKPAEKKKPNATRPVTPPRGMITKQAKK
T2 sequence (P36873 whole entry): as the sequence (P36873 whole entry partner, the tested form may be a part) above

Structure (SMILES) | EC50 (HeLa cells [1]) | Effect on cell death (HeLa cells [1]) | Kd (PPP1R15B-PP1) | Kd (PP1) | Emax (HeLa cells [2])
[H]/N=C(\N)NN=Cc1ccc(F)c(Cl)c1 [Compound 15, (E)-2-(3-chloro-4-fluorobenzylidene)hydrazine-1-carboximidamide] | 19.5 µM | Yes | 7.68 ± 2.18 µM | 6.14 ± 0.28 µM | 46%
[H]/N=C(\N)NN=Cc1cccc(Cl)c1Br [Compound 9, (E)-2-(2-bromo-3-chlorobenzylidene)hydrazine-1-carboximidamide] | 12 µM | Yes | 39.6 ± 5.9 µM | 14.7 ± 1.4 µM | 67%
[H]/N=C(\N)NN=Cc1ccc(Cl)cc1 [Compound 1, (E)-2-((4-chlorophenyl)methylene)hydrazine-1-carboximidamide] | 4.9 µM | Yes | 7.33 ± 1.79 µM | 6.28 µM | 0%
N=C(N)N/N=C/c1cc(Cl)c(Cl)c(Cl)c1 [Compound 3, (E)-2-(3,4,5-trichlorobenzylidene)hydrazine-1-carboximidamide] | 9.17 µM | Yes | 0.149 µM | 10.3 µM | 52%
[H]/N=C(\N)NN=Cc1ccc(Cl)c(F)c1 [Compound 8, (E)-2-(4-chloro-3-fluorobenzylidene)hydrazine-1-carboximidamide] | 11.7 µM | Yes | 11.3 µM | 10.6 ± 3.82 µM | 0%
[H]/N=C(\N)NN=Cc1c(Cl)ccc(Cl)c1Cl [Compound 31, (E)-2-(2,3,6-trichlorobenzylidene)hydrazine-1-carboximidamide] | – | No | 14.3 ± 0.7 µM | 12.6 ± 1.4 µM | 99%
[H]/N=C(\N)NN=Cc1cc(Cl)c(F)c(Cl)c1 [Compound 5, (E)-2-(3,5-dichloro-4-fluorobenzylidene)hydrazine-1-carboximidamide] | 9.46 µM | Yes | 2.67 ± 0.4 µM | 30.6 µM | 48%
N=C(N)N/N=C/c1cc(Cl)c(Cl)cc1F [Compound 18, (E)-2-(4,5-dichloro-2-fluorobenzylidene)hydrazine-1-carboximidamide] | 23.8 µM | Yes | 4.85 ± 0.14 µM | 10.2 ± 0.14 µM | 54%
[H]/N=C(\N)NN=Cc1cccc(Cl)c1 [Compound 24, (E)-2-(3-chlorobenzylidene)hydrazine-1-carboximidamide] | – | No | 18.7 µM | 6.27 µM | 62%
[H]/N=C(\N)NN=Cc1cc(F)c(Cl)cc1Cl [Compound 7, (E)-2-(2,4-dichloro-5-fluorobenzylidene)hydrazine-1-carboximidamide] | 11.5 µM | Yes | 4.34 ± 2.35 µM | 13 µM | 46%
